Results: PMC9114433 (Frontiers in Chemistry, 2022)
“And” between values parts separate entries of the source, which are not always exact repeats. Equal entries are not always repeated. Where two headings read alike, the source gives them in different places.

Assays:
hHAO1 [1] = target: T1, hHAO1 (Homo sapiens, UniProt Q9UJM8); details: read-out: Km (substrate), published value; ref Wang et al. 2016; cited from earlier work
T1 sequence (Q9UJM8 1-368): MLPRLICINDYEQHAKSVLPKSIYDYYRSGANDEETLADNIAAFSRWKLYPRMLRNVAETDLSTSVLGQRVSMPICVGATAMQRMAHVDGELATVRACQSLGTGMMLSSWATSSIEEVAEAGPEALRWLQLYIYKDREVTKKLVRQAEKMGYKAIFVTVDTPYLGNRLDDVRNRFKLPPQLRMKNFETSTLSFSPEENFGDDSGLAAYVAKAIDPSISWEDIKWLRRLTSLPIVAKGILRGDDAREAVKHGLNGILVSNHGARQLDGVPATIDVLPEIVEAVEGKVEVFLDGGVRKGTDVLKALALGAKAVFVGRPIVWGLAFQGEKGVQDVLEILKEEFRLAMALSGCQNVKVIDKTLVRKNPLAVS

hHAO1 [2] = target: T1, hHAO1; test: Amplex Red fluorescence hydrogen peroxide activity assay; format: biochemical; set-up: A hHAO1 construct, encoding residues Met1-Ser368, with an engineered N-terminal His6-tag; His6 (N); made in house; host or cells: E. coli BL21 (DE3); details: for Km: substrate titration, 30 nM hHAO1; for Vmax, Best-fit, 1 mM: Vmax in the presence of 1 mM compound, reaction rate as µM; for LLEAT (Astex lipophilic ligand efficiency score): from hHAO1 IC50; for fold increase in potency: relative to parent fragment scaffold (fragment 1 for 7, 8; fragment 2 for 9–12); for inhibition mode with respect to glycolate: glycolate 0–500 µM, compound 0–1 mM, best fitting model in GraphPad Prism; for 95% CI α / α (Best-fit): mixed model inhibition fit; for 95% CI α: 95% confidence interval; for α (Best-fit): ratio between αKi (enzyme-substrate complex) and Ki (free enzyme)
Procedure: hHAO1 activity in vitro was determined using the Amplex Red fluorescence hydrogen peroxide assay (Sigma Aldrich). […] The assay buffer contained 50 mM sodium phosphate, pH 7.4, 200 mM KCl, 2 mM MgCl2, and 0.01% TritonX. Determination of suitable assay parameters is described in the Supplementary Material. […] Following 10 min incubation at room temperature, 10 µl/well of Amplex Red reagent was added. […] All reactions were performed in technical triplicates for two different preparations of hHAO1. Reaction rate, defined as total H2O2 produced by the hHAO1 reaction, was determined from the H2O2 standard curve. […] This value is defined as the […] the inhibition constant for the free enzyme (Ki) and the inhibition constant for the enzyme-substrate complex (αKi) and can be related to the initial velocity (V0), substrate concentration ([S]), inhibitor concentration ([I]), and other kinetic parameters (Km, Vmax, Ki) as follows: V0 = Vmax [S]/(Km (1 + [I]/Ki) + [S](1 + [I]/(α∗Ki))). […]
6.2 Establishing parameters for Amplex Red activity assay
HAO1 activity was measured by coupling production of H2O2 by hHAO1 with the H2O2-dependent conversion of Amplex Red to its fluorescent product resorufin by […] peroxidase (Figure S7A).
To determine an incubation period resulting in measurements being made at initial rate conditions that also generated sufficient fluorescence signal, activity of 30 nM hHAO1 in the presence of 30 μM glycolate was measured every 1.5 minutes for a period of 60 minutes ([…]).
To confirm recombinant hHAO1 used in this work was active, the reaction rate of 30 nM hHAO1 was measured across a range of glycolate (Figure S7C) and 2-hydroxypalmitate (Figure S7D) concentrations.
(1 picture or pasted object on this page, not shown here)
Figure S8: Set-up of hHAO1 Amplex Red activity assay. (A) Schematic showing how hHAO1 activity is measured using the Amplex Red assay. (B) Plot of reaction rate (hydrogen peroxide […], µM) of 30 nM hHAO1 over time (minutes) in the presence of 30 µM glycolate. (C) Plot of relative fluorescence versus hydrogen peroxide concentration showing the standard curve fitted within the linear range of the Amplex Red reagent. (D) Michaelis-Menten plot of glycolate concentration versus reaction rate for 30 nM hHAO1. Inset: chemical structure of glycolate. (E) Michaelis-Menten plot of 2-hydroxypalmitate concentration versus reaction rate for 30 nM hHAO1. Inset: chemical structure of 2-hydroxypalmitate.

mGO = test system: mGO; set-up: method as in ref Martin-Higueras, Luis-Lima, and Salido 2016; Moya-Garzón et al., 2018; details: purified mGO; ref Martin-Higueras, Luis-Lima, and Salido 2016; Moya-Garzón et al., 2018; cited from earlier work
[3] = test system: rat LCHAO (equivalent to hHAO2); set-up: method as in Chen et al., 2012; details: ref Chen et al., 2012; cited from earlier work
[4] = target: flavin dehydrogenase domain of yeast flavocytochrome b2; set-up: method as in Chen et al., 2012; details: ref Chen et al., 2012; cited from earlier work
HAO = test system: HAO; set-up: method as in ref Chen et al., 2012; Martin-Higueras, Luis-Lima, and Salido 2016; details: published kinetics against mGO, rat LCHAO, yeast flavocytochrome b2, hHAO1; ref Chen et al., 2012; Martin-Higueras, Luis-Lima, and Salido 2016; cited from earlier work
[5] = 30 nM hHAO1, 30 µM glycolate, log(inhibitor) vs response fit, read-out: IC50 (Best-fit)
[6] = 30 µM glycolate, 95% confidence interval of fit, read-out: 95% CI IC50
[7] = 95% confidence interval of fit, read-out: 95% CI Ki
[8] = compound 0–1 mM vs glycolate 0–500 µM, read-out: Ki (Best-fit)
[9] = at 1 mM compound, glycolate titration

IC50 (hHAO1 [2]; [5]) | IC50 (hHAO1 [2]; [6]) | Ki (hHAO1 [2]; [7]) | Vmax, Best-fit, 1 mM (hHAO1 [2]) | Ki (hHAO1 [2]; [8]) | LLEAT (Astex lipophilic ligand efficiency score) (hHAO1 [2]) | fold increase in potency (hHAO1 [2]) | inhibition mode with respect to glycolate (hHAO1 [2]) | SMILES | further results
420 µM |  |  |  |  |  |  |  | Cn1nc(C(N)=O)c2ccccc21 [Fragment 1] | 
60 µM and 59.8 µM | 39.5 to 92 µM | 157 to 177 µM | 56.47 µM | 167 µM | 0.77 kcal/mol | more than 10 fold |  | Cn1cc(N)c(=O)n(C)c1=O [Compound 10] | 
40 µM and 39.8 µM | 22.8 to 71.1 µM | 219 to 248 µM | 55.85 µM | 233 µM | 0.88 kcal/mol | more than 10 fold |  | Cn1cc(N)c(=O)[nH]c1=O [Compound 11] | 
153 µM | 110 to 215 µM | 56.7 to 64.2 µM | 47.76 µM | 60.4 µM | 0.40 kcal/mol | 5 fold |  | O=C(NO)c1n[nH]c2ccccc12 [Compound 7] | 
93 µM and 93.3 µM | 48.1 to 193 µM | 113 to 126 µM | 56.25 µM | 119 µM | 0.71 kcal/mol | more than 10 fold |  | Nc1c(C(=O)O)[nH]c(=O)[nH]c1=O [Compound 9] | fold lower potency (hHAO1 [2]; relative to compound 12): 3 fold
158 µM | 100 to 256 µM | 83.1 to 119 µM | 43.12 µM | 98.9 µM | 0.25 kcal/mol |  | mixed model inhibition | Cc1cc(NC(=O)N2CCN(c3cccc(O)c3)CC2)no1 [Compound 14] | fold increase in Km (hHAO1 [2]; [9]): up to 4.9 fold; fold reduction in Vmax (hHAO1 [2]; [9]): up to 1.7 fold; 95% CI α (hHAO1 [2]): 9.41–59.28; α (Best-fit) (hHAO1 [2]): 18 and 18.4
44 µM and 43.8 µM | 27.4 to 71.4 µM | 59.1 to 82.9 µM | 27.28 µM | 69.7 µM | 0.30 kcal/mol |  | mixed model inhibition | O=C(Nc1cccnc1)N1CCN(c2ccccc2O)CC1 [Compound 13] | fold increase in Km (hHAO1 [2]; [9]): up to 4 fold; 95% CI α (hHAO1 [2]): 7.84–27.32; α (Best-fit) (hHAO1 [2]): 13.27

Continued, compound first:

SMILES | IC50 (hHAO1 [2]; [5]) | IC50 (hHAO1 [2]; [6]) | Ki (hHAO1 [2]; [7]) | Vmax, Best-fit, 1 mM (hHAO1 [2]) | Ki (hHAO1 [2]; [8]) | LLEAT (Astex lipophilic ligand efficiency score) (hHAO1 [2]) | fold increase in potency (hHAO1 [2]) | inhibition mode with respect to glycolate (hHAO1 [2]) | further results
O=C(O)CO [glycolate] |  |  |  |  |  |  |  |  | Km (hHAO1 [1]): 74.5 µM; Km (hHAO1 [2]; read-out: Km (substrate)): 18.9 ± 0.8 µM
NCCNC(=O)c1n[nH]c2ccccc12 [Compound 8] | 81 µM and 81.3 µM | 57.1 to 117 µM | 37.7 to 44.3 µM | 54.60 µM | 40.9 µM | 0.47 kcal/mol | 5 fold | competitive inhibition | 
CCCCCCCCCCCCCCC(O)C(=O)O (centres unmarked) [2-hydroxypalmitate] |  |  |  |  |  |  |  |  | fold higher Km (hHAO1 [2]; relative to glycolate): 100 fold; Km (hHAO1 [2]; read-out: Km apparent (substrate)): 1200 ± 400 µM
O=C(O)c1nnsc1Sc1ccc(Cl)cc1 [CCPST, 4-carboxy-5-[(4-chlorophenyl)sulfanyl]-1,2,3-thiadiazole] |  |  |  |  |  |  |  | competitive inhibition mode | IC50 (mGO): 43 to 198 µM; IC50 [3]: 3.6 µM; IC50 [4]: 6 µM; inhibition mode (HAO): non-competitive inhibition mode
O=C(C1CC1)N1CCN(c2ccc(F)cc2)CC1 [Fragment 3] |  |  |  |  |  |  |  |  | inhibition at 1000 µM (hHAO1 [2]; 1 mM fragment): 2%; inhibition at 10000 µM (hHAO1 [2]; 10 mM fragment): 19%
CC1=NC(=O)NC(=O)C1N (centres unmarked) [Compound 12] | 27 µM and 27.4 µM | 19.9 to 38 µM | 141 to 156 µM | 54.05 µM | 148 µM | 0.89 kcal/mol | more than 10 fold |  | 
